Tests used:
[1] = target: T1, recombinant his tagged human SphK1 (Homo sapiens, UniProt Q9NYA1); experiment: SphK1 activity assay (32P-labelled S1P production); type: biochemical; conditions: 10 μM compound; % of activity compared to control (DMSO vehicle only)
T1 construct: His tag; made in house; host or cells: insect cells (baculovirus system)
Description: (§1) The SphK assays employed, measure SphK activity through the production of ^32P-labelled S1P following the addition of exogenous Sph and [γ^32P] ATP.
(§2) Activities of SphK1 and SphK2 were determined using identical assay conditions with the exception that SphK1 assays used 3 ng/assay recombinant his tagged human SphK1 (made in the lab in a baculovirus system using insect cells), while SphK2 assays used 30 ng/assay recombinant human SphK2 (purchased by Johnson and Johnson).
(§3) Compounds were dissolved in DMSO at 10 mM, the mixture was vortexed (and sonicated if necessary). Stock solutions were kept at 4° C. until used.
(§4) Aliquots were made containing 100 μM drug compound. These aliquots were then diluted in assay buffer: 100 mM tris/HCl pH 7.4, 100 mM NaCl, 1 mM sodium orthovanadate, 10 mM NaF to make up a 10 μM solution.
(§5) Recombinant enzyme was diluted in assay buffer (above) to make up a final concentration of 0.03 ng/μL (SphK1) or 0.33 ng/μL (SphK2).
(§6) 40 μL recombinant enzyme was added to an Eppendorf® Safe-Lock® microcentrifuge tube. This was followed by the addition of drug compound from prepared aliquots, before adding ATP, [γ^32P]ATP and Sph. Note: ATP stock is made up in 1M Tris pH 7.4 and 200 mM MgCl2. This allows ATP to complex with Mg and be available as a substrate.
(§7) The rest of the reaction mixture was then added to the enzyme sample (Table 1). All reactions were performed as triplicates.
(§8) Reaction mixture was prepared with sufficient volume to assay all of the required samples. To do this, each of the volumes shown was multiplied by n+1, where n is the number of samples to be assayed. Assay buffer used is made up of 100 mM tris/HCl pH 7.4, 100 mM NaCl, 1 mM sodium orthovanadate and 10 mM NaF.
(§9) The mixture was then incubated at 37° C. for 20 min (SphK1)/45 min (SphK2).
(§10) To the 100 μL assay mixture, add 270 μl of chloroform/methanol/conc. HCl (100:200:1).
(§11) 20 μL of 5 M KCl was then added to the assay mixture.
(§12) 70 μL of chloroform was added to create phase separation. The solution was vortexed to mix well.
(§13) The solution was then centrifuged for 5 min at 13,000×g to fully separate the phases.
(§14) The upper aqueous/methanol phase was separated by aspiration.
(§15) 50 μL of the remaining lower chloroform phase […] was applied onto the TLC plate by repeatedly spotting a few microliters of liquid (<5 mm diameter circle) between each sample spot with the pipette tip. The liquid was then allowed to absorb into the plate before drying with a stream of air.
(§16) The TLC plate was developed in a glass TLC developing tank with 1-butanol/ethanol/glacial acetic acid/H2O (8:2:1:2) until the mobile phase is within 1 cm of the top of the TLC plate.
(§17) The TLC plate was then exposed to a storage phosphor screen overnight. Storage phosphor screens work by capturing images produced by ionising radiation (e.g. ^32P). The phosphorimager stimulates the screen which uses lasers to convert the latent signal to light. Light is proportional to the amount of radioactivity in the sample. The image is then quantified using standard quantification software (ImageQuant™). Whatman paper with the assay mixture dilutions, was included to assist quantification of the phosphor signal.
(§18) Once the storage phosphor screen was read using the phosphorimager, S1P spots, which have an Rf of 0.7 with the mobile phase employed, were quantified.
(§19) The S1P spot intensity can be converted to the amount of phosphate transferred/min/mg protein.

[2] = target: T2, SphK1a in Flpln-SphK1a cells (Flp-In T-Rex HEK293) (Homo sapiens, UniProt Q9NYA1); experiment: SphK1 proteasomal degradation study (immunoblotting); type: cell-based; conditions: 10 μM test compound, 24 h
T2 construct: expressed in transfected cells; host or cells: Flp-In T-Rex HEK293 cells, doxycycline-induced
T2 sequence (Q9NYA1 whole entry): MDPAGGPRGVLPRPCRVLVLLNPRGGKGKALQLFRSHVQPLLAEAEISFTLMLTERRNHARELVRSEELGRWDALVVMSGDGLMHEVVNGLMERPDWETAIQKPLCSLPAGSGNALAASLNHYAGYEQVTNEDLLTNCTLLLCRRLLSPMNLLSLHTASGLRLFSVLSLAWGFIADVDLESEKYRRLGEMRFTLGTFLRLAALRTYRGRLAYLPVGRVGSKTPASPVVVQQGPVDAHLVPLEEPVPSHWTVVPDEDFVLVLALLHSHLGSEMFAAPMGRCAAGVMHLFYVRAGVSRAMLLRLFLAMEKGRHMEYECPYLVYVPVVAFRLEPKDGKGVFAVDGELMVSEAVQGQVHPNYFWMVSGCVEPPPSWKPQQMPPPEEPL
Description: These studies were performed as previously described for the drug SKI-II (C. Loveridge et al. J. Biol. Chem. 2010, 285, 38891). […] After 24 h cells were treated with 10 μm test compound, 10 μm MG132, or both. DMSO was used as the vehicle control. After a further 24 h, cells were harvested, lysed, and subjected to SDS-PAGE and immunoblotting with anti-FLAG (Sigma), anti-ERK1/2 (Promega), or anti-a-tubulin (Abcam) antibodies.

[3] = tested on: PC3 prostate cancer cell lines; experiment: Anticancer activity in PC3 cell line, CellTitre AQueous One cell viability assay; type: cell-based; conditions: concentration required to inhibit cell proliferation by 50%, 72 hours
Description: Measurement of Anticancer Activity in PC3 Cell Line Assays
PC3 prostate cancer cell lines were cultured in DMEM (containing 10% fetal calf serum and penicillin-streptomycin).
Before treatment with drug compounds, cells were plated at 2,500 cells/well in 96 well plates and incubated at 37° C. with 5% CO2 in a humidified incubator for 24 hours prior. Cells were only plated in columns 3-10 and rows C—F to ensure uniform humidity and warmth across all wells. The remaining wells were filled with 100 μL of phosphate buffered saline.
Drug stock solutions (50 or 10 mM) were diluted×1000 in media to a final concentration of either 50 μM or 10 μM with a DMSO vehicle concentration of 0.1%.
Cell culture supernatants were aspirated and replaced with drug containing media. Drug treatments were performed in duplicate wells, while potential plate layout-specific variation in cell growth was accounted for by addition of a vehicle control (0.1% DMSO).
Cells were then incubated with drug compounds at 37° C. with 5% CO2 in a humidified incubator for 72 hours prior to assay.
Media was diluted with CellTitre AQueous One Solution (Promega, Australia; Cat # G3580) according to manufacturer's instructions to produce a final concentration of 317 μg/mL.
Cell culture supernatants were then aspirated from wells and replaced with 100 μL of CellTitre solution. Triplicate cell-free control wells containing only CellTitre solution were also included in each assay.
Cells were then incubated at 37° C. with 5% CO2 in a humidified incubator for 1 hour at which time absorbance was read at 490 nm with an EnVision microplate reader (Perkin Elmer, Australia).
When analysing data, background absorbance (taken from cell-free control wells) was subtracted from each reading. […] For each drug concentration the mean (±SEM) is calculated and graphed using GraphPad Prism (version 5). A sigmoidal curved is fitted to the data and used to calculate the IC50 of each compound.

recombinant human SphK2 = target: T3, recombinant human SphK2 (Homo sapiens, UniProt Q9NRA0); experiment: SphK2 activity assay (32P-labelled S1P production); type: biochemical; conditions: 10 μM compound, % of activity compared to control (DMSO vehicle only); for remaining activity at 10 µM: read-out: SphK2% actvity at 10 μm
T3 construct: purchased Johnson and Johnson
T3 sequence (Q9NRA0 1-654): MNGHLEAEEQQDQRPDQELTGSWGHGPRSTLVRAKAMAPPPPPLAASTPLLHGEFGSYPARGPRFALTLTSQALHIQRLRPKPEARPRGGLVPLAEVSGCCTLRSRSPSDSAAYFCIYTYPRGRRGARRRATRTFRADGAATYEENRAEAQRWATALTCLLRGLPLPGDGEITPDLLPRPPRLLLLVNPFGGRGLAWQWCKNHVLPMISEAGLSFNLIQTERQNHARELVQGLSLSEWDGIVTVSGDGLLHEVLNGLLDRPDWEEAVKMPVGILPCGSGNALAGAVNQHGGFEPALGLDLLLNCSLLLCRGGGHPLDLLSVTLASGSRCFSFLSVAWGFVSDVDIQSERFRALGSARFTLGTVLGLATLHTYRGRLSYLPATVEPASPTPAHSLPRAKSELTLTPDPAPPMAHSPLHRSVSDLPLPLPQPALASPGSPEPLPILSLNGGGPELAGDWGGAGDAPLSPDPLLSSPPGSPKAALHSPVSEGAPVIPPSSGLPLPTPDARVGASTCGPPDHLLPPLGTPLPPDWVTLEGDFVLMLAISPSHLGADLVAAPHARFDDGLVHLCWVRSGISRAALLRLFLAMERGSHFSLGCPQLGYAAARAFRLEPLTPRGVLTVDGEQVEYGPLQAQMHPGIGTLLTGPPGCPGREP
Description: as §1, §2, §3, §4, §5, §6, §7, §8, §9, §10, §11, §12, §13, §14, §15, §16, §17, §18, §19

MCF7 breast cancer cells = experiment: Anticancer activity in MCF7 cell lines, MTS assay; type: cell-based; conditions: Homo sapiens, concentration required to inhibit cell proliferation by 50%, 72 hrs, read-out: MCF-7 IC50
Description: Measurement of Anticancer Activity in MCF7 Cell Lines
MCF7 breast cancer cells were treated with the test compounds and incubated at 37° C., 5% CO2 in air for 72 hrs. The MTS assay was conducted with addition of prepared MTS solution followed by 2 hr incubation, an OD reading and the raw data recorded. The data was managed in tabular form, values adjusted for vehicle control, and the adjusted values graphed as a sigmoidal curve and the EC50 value calculated.

[4] = target: T4, Dihydroceramide Desaturase-1 (Des1) (Homo sapiens, UniProt O15121); experiment: Dihydroceramide desaturase-1 (Des1) activity by HPLC in intact Jurkat cells labeled with DhCer-C6-NBD; type: cell-based; conditions: intact Jurkat cells; for IC50: read-out: Des 1 IC50
T4 construct: These modifications included the use of parental Jurkat cells; endogenous in cells; host or cells: parental Jurkat cells
T4 sequence (O15121 1-323): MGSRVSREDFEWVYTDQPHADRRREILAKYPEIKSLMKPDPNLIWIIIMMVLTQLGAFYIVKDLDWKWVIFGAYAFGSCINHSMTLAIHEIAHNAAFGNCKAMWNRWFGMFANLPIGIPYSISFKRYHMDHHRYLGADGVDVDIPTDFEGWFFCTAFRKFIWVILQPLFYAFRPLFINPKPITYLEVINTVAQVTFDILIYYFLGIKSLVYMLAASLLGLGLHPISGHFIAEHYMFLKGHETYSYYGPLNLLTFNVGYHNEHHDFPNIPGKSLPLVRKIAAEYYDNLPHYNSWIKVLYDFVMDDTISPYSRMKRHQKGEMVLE
Description: Measurement of Dihydroceramide Desaturase-1 (Des1) Activity:
These modifications included the use of parental Jurkat cells, 0.5% serum in the culture media, and cell harvesting via centrifugation at 500×g to maximise ceramide extraction. Extracted samples (50 ul) were analysed on a Waters HPLC coupled to a fluorescence detector using a 30 cm C18 reverse-phase column eluted with 1 ml/min 20% H2O and 80% acetonitrile, both with a 0.1% of trifluoroacetic acid.

[5] = tested on: Neonatal cardiac fibroblasts (NCFs) collagen synthesis; experiment: Inhibition of NCF collagen synthesis by 3H-proline incorporation; type: cell-based
Description: Neonatal cardiac fibroblasts (NCFs) were isolated as previously reported (Lekawanvijit, S. Wang, B. H., Krum, H. Eur Heart J. 2010, 31(14), 1771-9). After isolation, NCF (passage 0) were placed into T75 cell culture flasks (BD Falcon, NSW, Australia) and maintained in high-glucose (25 mM) DMEM containing 5.33 mM KCl (Invitrogen, Mount Waverley, Vic, Australia) in the presence of 1% antibiotic/antimycotic (Invitrogen, Mount Waverley, Vic, Australia) and 10% fetal bovine serum (FBS) (JRH biosciences). Cells were incubated at 37° C. with 5% CO2 for overnight and then the media were changed. NCF confluence was checked microscopically and NCF were sub-cultured. After removing media and 3× wash with warm 1×PBS, 2 ml of warm 0.05% trypsin-EDTA was added to each flask. Flasks were placed back into the 37° C. incubator for 1-2 minutes to allow cells to lift off the surface of the flasks. Trypsin was inactivated by adding 8 ml of DMEM containing 10% FBS. NCF (passage 1) were centrifuged for 6 minutes at 1300 rpm at RT. Cell pellets was washed 3× with DMEM+10% FBS and resuspended in DMEM+10% FBS. Cells were then placed into new flasks and incubated at 37° C. with 5% CO2 for 48 hours.
To seed NCF, steps from trypsinization to resuspension were repeated as above. NCF (passage 2) were counted with the ‘Countess’ cell counter. […]

T1 sequence (Q9NYA1 whole entry): as the sequence (Q9NYA1 whole entry) above

Row | Compound | SphK1% activity at 10 μm [1] | IC50 [3] [µM] | SphK2% actvity at 10 μm (recombinant human SphK2) | IC50 ([3]; Homo sapiens, PC-3) [µM] | IC50 [4] [µM] | activity at 10 µM [1] [%] | remaining activity at 10 µM (recombinant human SphK2) [%] | further results
1 | 3-(4-(5-(4-Chlorophenyl)-1,3,4-oxadiazol-2-yl)phenyl)-1,2,4-oxadiazol-5(4H)-one [Example E-15] | 50-80% | 0.1 to 1 | 80-100% |  |  |  |  | % SphK1a degradation at 10 μM [2]: 50%
2 | O=C(Nc1ccc(O)cc1)c1nc(-c2ccc(Cl)cc2)cs1 [Example E-5, 4-(4-Chlorophenyl)-N-(4-hydroxyphenyl)thiazole-2-carboxamide] |  |  |  | 10 to 100 |  |  |  | IC50 (MCF7 breast cancer cells): 10 to 100 µM
3 | (Z)-4-(5-(4-Chlorophenyl)-1,3,4-oxadiazol-2-yl)-N′-hydroxybenzimidamide [Example E-14] | 100-150% | > 100 | 80-100% |  |  |  |  | EC (effective concentration: concentration required to reduce collagen synthesis to a level equal to or below unstimulated control) [5]: 0.5 to 5 µM

The next lines start with results.

Row | SphK1% activity at 10 μm [1] | IC50 [3] [µM] | SphK2% actvity at 10 μm (recombinant human SphK2) | IC50 ([3]; Homo sapiens, PC-3) [µM] | IC50 [4] [µM] | activity at 10 µM [1] [%] | remaining activity at 10 µM (recombinant human SphK2) [%] | Compound | further results
4 |  |  |  |  | 1 to 10 |  |  | Oc1ccc(Nc2nnc(-c3ccccc3)o2)cc1 [Example E-25, 4-((5-Phenyl-1,3,4-oxadiazol-2-yl)amino)phenol] | melting point: 231 °C
5 |  |  |  | 10 to 100 |  | 20 to 50 | 50 to 80 | Clc1ccc(-c2nnc(Nc3ccc(-c4nn[nH]n4)cc3)o2)cc1 [Example E-27, 5-(4-Chlorophenyl)-N-[4-(1H-tetrazol-5-yl)phenyl]-1,3,4-oxadiazol-2-amine] | Des 1 IC50 [4]: inactive
6 |  |  |  | 10 to 100 | 1 to 10 | < 1 | 5 to 20 | O=S1NC(c2ccc(Nc3nnc(-c4ccc(Cl)cc4)o3)cc2)=NO1 (centres unmarked) [Example E-28, 5-(4-Chlorophenyl)-N-[4-(2-oxido-3H-1,2,3,5-oxathiadiazol-4-yl)phenyl]-1,3,4-oxadiazol-2-amine] | 

From patent publication US9828351B2, “Enzyme interacting agents” (MONASH UNIVERSITY, priority 2014, dated 2017)
